The source of these data is US9346798B2, “Dihydrobenzoxazine and tetrahydroquinoxaline sodium channel inhibitors” (AMGEN INC., priority 2012, dated 2016).

Usually IC50 stands for the point on the concentration scale where inhibition reaches its midpoint. High values mean lower potency, low ones higher potency. A word on the inhibition: it is the share of the control response that was lost under treatment.

Common to all, as to assay type: cell-based
For series [1], the target named is T1, Nav 1.7 (Homo sapiens (Human), UniProt Q15858). Nature of the series: Nav 1.7 in vitro assay, IonWorks Quattro (IWQ) population patch-clamp. The note with it: HEK 293 cells stably transfected with Nav 1.7; for IC50: 26th pulse to -20 mV; for inhibition at 4.9 µM: HEK293, values marked *, read-out: Nav 1.7 IWQ percent inhibition at 4.9 μM. The method, then: (§1) Nav 1.7 and Nav 1.5 In Vitro Assays
T1 sequence (Q15858 whole entry): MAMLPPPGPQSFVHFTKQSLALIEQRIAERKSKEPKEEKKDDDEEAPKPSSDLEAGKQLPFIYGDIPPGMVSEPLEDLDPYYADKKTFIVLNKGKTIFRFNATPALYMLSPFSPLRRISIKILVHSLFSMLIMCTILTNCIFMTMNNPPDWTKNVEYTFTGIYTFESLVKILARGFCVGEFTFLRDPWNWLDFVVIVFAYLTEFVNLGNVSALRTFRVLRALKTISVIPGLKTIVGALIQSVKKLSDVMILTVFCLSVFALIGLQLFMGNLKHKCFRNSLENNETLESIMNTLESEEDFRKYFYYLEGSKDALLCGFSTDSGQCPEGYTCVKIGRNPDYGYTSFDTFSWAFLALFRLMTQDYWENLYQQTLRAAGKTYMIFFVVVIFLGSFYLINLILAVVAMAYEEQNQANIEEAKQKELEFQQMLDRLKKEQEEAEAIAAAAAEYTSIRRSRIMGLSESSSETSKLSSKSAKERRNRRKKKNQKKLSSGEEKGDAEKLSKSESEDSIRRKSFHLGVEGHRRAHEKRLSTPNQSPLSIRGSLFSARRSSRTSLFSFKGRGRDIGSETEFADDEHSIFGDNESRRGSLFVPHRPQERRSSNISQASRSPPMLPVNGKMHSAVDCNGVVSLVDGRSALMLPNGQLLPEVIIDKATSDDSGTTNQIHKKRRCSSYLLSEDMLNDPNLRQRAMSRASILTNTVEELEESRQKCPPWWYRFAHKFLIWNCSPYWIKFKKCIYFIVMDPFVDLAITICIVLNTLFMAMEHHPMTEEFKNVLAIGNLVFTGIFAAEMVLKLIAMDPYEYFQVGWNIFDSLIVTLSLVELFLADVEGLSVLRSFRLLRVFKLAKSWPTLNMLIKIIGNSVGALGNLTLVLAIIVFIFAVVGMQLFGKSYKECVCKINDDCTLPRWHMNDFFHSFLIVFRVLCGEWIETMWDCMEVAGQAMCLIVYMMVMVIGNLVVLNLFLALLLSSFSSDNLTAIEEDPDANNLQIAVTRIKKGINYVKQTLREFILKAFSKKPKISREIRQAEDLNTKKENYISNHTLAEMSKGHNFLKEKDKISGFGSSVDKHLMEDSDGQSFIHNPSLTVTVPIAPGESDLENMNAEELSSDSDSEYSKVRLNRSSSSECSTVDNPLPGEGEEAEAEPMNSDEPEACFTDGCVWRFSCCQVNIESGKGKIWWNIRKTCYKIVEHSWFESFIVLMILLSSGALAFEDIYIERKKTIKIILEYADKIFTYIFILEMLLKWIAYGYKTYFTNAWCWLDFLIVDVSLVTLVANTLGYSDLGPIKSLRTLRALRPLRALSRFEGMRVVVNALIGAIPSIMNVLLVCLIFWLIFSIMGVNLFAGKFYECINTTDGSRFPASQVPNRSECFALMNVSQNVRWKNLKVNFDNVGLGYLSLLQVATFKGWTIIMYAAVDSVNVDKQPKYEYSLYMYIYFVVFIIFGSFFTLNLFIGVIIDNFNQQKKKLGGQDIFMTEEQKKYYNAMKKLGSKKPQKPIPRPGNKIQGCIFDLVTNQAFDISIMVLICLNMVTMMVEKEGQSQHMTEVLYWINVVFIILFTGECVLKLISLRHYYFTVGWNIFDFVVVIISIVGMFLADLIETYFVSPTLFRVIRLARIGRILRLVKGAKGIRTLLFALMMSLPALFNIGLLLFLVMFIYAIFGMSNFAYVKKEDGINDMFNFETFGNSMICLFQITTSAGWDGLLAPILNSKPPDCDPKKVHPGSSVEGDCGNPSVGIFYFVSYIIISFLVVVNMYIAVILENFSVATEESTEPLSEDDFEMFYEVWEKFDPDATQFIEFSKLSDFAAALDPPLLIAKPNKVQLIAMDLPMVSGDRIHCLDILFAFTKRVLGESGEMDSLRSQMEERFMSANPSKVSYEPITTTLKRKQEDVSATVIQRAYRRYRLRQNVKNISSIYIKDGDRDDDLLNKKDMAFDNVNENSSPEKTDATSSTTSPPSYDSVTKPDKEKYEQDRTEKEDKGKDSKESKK
(§2) HEK 293 cells stably transfected with either Nav 1.7 or with Nav 1.5 were recorded in population patch-clamp mode with the IonWorks® Quattro automated electrophysiology system in accordance with the manufacturer's specifications (Molecular Devices, LLC, Sunnyvale, Calif.). Sodium channel currents were measured in response to a train of depolarizations that induced successively greater inactivation.
(§3) Cells were held at −110 mV for three seconds (Nav 1.7) or half a second (Nav 1.5) from a holding voltage of −15 mV, then put through a series of 26 pulses of 150 msec duration to −20 mV at a frequency of 5 Hz. Cells were then left unclamped for a period of 3 to 8 minutes while a single concentration of test compound was added. Cells were then reclamped and put through the same voltage protocol. Current at the end of the 26th pulse to −20 mV was subtracted from the peak current evoked by the 26th pulse to −20 mV to correct for leak current. Percent block was calculated for each concentration in duplicate, and IC50 curves were fitted to percent block as a function of concentration.
Background: The patch-clamp technique gives a direct electrical read-out from membranes.

The target of a further series is Nav 1.5 (Homo sapiens (Human), UniProt Q14524). Nature of the series: Nav 1.5 in vitro assay, IonWorks Quattro (IWQ) population patch-clamp. The note with it: HEK 293 cells stably transfected with Nav 1.5; 26th pulse to -20 mV. The procedure: as §1, §2, §3
Chain of Nav 1.5 (Q14524 whole entry): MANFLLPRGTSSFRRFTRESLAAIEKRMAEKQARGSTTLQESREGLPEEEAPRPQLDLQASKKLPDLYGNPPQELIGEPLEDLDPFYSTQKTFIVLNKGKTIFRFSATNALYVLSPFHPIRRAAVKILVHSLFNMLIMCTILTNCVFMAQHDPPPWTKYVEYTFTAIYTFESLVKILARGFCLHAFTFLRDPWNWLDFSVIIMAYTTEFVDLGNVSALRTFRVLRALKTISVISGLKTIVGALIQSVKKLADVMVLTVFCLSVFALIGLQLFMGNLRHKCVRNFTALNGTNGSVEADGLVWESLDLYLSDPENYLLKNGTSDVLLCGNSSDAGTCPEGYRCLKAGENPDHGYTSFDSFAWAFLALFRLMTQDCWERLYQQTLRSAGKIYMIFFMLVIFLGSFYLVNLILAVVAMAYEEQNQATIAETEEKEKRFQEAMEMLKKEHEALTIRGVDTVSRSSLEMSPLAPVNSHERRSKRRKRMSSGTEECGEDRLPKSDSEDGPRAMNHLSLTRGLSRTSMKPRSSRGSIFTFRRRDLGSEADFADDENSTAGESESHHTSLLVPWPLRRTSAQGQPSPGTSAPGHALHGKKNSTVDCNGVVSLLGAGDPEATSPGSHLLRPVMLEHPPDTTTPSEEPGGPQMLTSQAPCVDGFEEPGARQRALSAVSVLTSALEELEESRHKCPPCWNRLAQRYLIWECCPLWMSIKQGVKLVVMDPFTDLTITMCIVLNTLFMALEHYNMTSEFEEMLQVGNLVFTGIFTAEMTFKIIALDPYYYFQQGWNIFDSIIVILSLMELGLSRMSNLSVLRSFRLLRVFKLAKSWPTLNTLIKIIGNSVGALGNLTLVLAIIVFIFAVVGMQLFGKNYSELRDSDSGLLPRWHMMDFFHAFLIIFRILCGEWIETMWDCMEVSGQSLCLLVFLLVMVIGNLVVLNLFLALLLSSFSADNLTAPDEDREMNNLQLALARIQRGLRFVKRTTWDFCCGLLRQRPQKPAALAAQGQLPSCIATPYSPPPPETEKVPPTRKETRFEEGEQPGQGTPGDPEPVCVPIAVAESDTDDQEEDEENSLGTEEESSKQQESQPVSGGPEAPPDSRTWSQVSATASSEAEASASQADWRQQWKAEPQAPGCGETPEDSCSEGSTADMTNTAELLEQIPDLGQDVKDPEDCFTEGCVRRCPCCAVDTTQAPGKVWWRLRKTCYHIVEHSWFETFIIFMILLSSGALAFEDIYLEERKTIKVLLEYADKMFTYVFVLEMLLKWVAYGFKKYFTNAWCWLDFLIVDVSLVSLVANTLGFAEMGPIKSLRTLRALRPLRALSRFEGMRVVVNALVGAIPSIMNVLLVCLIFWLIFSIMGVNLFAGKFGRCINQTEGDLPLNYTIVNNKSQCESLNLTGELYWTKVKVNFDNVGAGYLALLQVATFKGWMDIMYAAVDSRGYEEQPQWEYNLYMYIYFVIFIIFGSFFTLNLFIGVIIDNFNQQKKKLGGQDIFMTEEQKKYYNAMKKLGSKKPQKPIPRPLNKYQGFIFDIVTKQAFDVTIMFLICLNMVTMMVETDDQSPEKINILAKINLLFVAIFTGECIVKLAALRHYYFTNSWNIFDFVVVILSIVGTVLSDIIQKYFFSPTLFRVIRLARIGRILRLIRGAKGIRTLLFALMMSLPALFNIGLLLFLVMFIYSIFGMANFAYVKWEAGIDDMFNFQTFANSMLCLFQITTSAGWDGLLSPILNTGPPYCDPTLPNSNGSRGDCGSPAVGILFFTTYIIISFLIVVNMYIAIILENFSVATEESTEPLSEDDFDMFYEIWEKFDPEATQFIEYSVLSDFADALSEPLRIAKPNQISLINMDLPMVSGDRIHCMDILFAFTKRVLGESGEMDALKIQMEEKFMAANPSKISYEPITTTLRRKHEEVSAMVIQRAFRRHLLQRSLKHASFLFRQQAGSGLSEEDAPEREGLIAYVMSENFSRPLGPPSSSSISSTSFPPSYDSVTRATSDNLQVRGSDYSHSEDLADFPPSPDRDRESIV
For series [2], the target named is T1, Nav 1.7. Put plainly: Nav 1.7 in vitro PX assay, PatchXpress whole cell voltage clamp. To be noted: HEK 293 cells stably transfected with human Nav1.7; partially inactivated state (20 to 50% inactivation). The method, then: Nav 1.7 In Vitro PX Assay
HEK 293 cells stably transfected with human Nav1.7 were recorded in whole cell voltage clamp mode with the PatchXpress automated electrophysiology system (Molecular Devices, LLC, Sunnyvale, Calif.). Compound effects were measured on a partially inactivated state of the sodium channel. Cells were clamped to a holding potential yielding 20 to 50% inactivation. To elicit sodium current, channels were activated by pulsing to −10 mV for 20 msec. This voltage protocol was repeated at a rate of 0.1 Hz throughout the experiment. A single concentration of test compound was applied to cells for a duration of 3 minutes. Peak sodium current was measured at the end of the compound addition period to determine percent inhibition. Three to five cells were tested per concentration, and IC50 curves were fitted to percent inhibition as a function of concentration.

For the compound `CC1CN(c2ccc(C(F)(F)F)cc2C#N)c2ccc(S(=O)(=O)Nc3nccs3)cc2O1` (racemic) [Example 93, 4-(2-Cyano-4-(Trifluoromethyl)Phenyl)-2-Methyl-N-(Thiazol-2-Yl)-3,4-Dihydro-2H-Benzo[B][1,4]Oxazine-7-Sulfonamide], the figures for the IC50 at Nav 1.7 [1], on Nav 1.5 and against Nav 1.7 [2] were 78.5 nM, 1840 nM and 566 nM, respectively.

As to `CC1COc2cc(S(=O)(=O)Nc3nccs3)ccc2N1c1ccc(C(F)(F)F)cc1C#N` (racemic) [Example 96, 4-(2-Cyano-4-(Trifluoromethyl)Phenyl)-3-Methyl-N-(Thiazol-2-Yl)-3,4-Dihydro-2H-Benzo[B][1,4]Oxazine-7-Sulfonamide], the IC50 against Nav 1.7 [1] was 823 nM; at Nav 1.5, 1400 nM; against Nav 1.7 [2], 1890 nM.

On to `CCC1CN(c2ccc(C(F)(F)F)cc2C#N)c2ccc(S(=O)(=O)Nc3nccs3)cc2O1` (racemic) [Example 100, 4-(2-Cyano-4-(Trifluoromethyl)Phenyl)-2-Ethyl-N-(Thiazol-2-Yl)-3,4-Dihydro-2H-Benzo[B][1,4]Oxazine-7-Sulfonamide], for which the half-maximal inhibitory concentration (IC50) was 679 nM on Nav 1.7 [1], above 10000 nM on Nav 1.5 and 5790 nM at Nav 1.7 [2].

For the compound `COc1cc(Cl)ccc1N1CC(C)Oc2cc(S(=O)(=O)Nc3nccs3)ccc21` (racemic) [Example 103, 4-(4-Chloro-2-Methoxyphenyl)-2-Methyl-N-(Thiazol-2-Yl)-3,4-Dihydro-2H-Benzo[B][1,4]Oxazine-7-Sulfonamide], the 50% inhibitory concentration (IC50) against Nav 1.7 [1] stood at 40 nM; at Nav 1.5, 9590 nM; on Nav 1.7 [2] it was 422 nM.

As to `COc1cc(C#N)ccc1N1CC(C)Oc2cc(S(=O)(=O)Nc3nccs3)ccc21` (racemic) [Example 106, 4-(4-cyano-2-methoxyphenyl)-2-methyl-N-(thiazol-2-yl)-3,4-dihydro-2H-benzo[b][1,4]oxazine-7-sulfonamide], the IC50 is 42.5 nM against Nav 1.7 [1], above 10000 nM against Nav 1.5 and 288 nM on Nav 1.7 [2].

For `O=S(=O)(Nc1nccs1)c1ccc2c(c1)OCCN2c1ccc(C(F)(F)F)cc1CC(O)CO` (racemic) [Example 207, 4-(2-(2,3-Dihydroxypropyl)-4-(Trifluoromethyl)Phenyl)-N-(Thiazol-2-Yl)-3,4-Dihydro-2H-Benzo[B][1,4]Oxazine-7-Sulfonamide], the half-inhibitory concentration (IC50) at Nav 1.7 [1] was 25 nM; against Nav 1.5, 3110 nM; on Nav 1.7 [2], 86.7 nM.

With `C[C@H]1CN(c2ccc(C(F)(F)F)cc2C#N)c2ccc(S(=O)(=O)Nc3nccs3)cc2O1` (single isomer, unassigned) [Example 94], the values for the 50% inhibitory concentration (IC50) against Nav 1.7 [1], against Nav 1.5 and at Nav 1.7 [2] were 8.5 nM, 724 nM and 149 nM, respectively.

Turning to `C[C@@H]1CN(c2ccc(C(F)(F)F)cc2C#N)c2ccc(S(=O)(=O)Nc3nccs3)cc2O1` (single isomer, unassigned) [Example 95], the values for the IC50 against Nav 1.7 [1], against Nav 1.5 and against Nav 1.7 [2] were 70.5 nM, 6670 nM and 293 nM, respectively.

Turning to `C[C@@H]1COc2cc(S(=O)(=O)Nc3nccs3)ccc2N1c1ccc(C(F)(F)F)cc1C#N` (single isomer, unassigned) [Example 97], the concentration for half-maximal inhibition (IC50) on Nav 1.7 [1] stood at 208 nM; against Nav 1.5, 851 nM; on Nav 1.7 [2] it was 772 nM.

Take `C[C@H]1COc2cc(S(=O)(=O)Nc3nccs3)ccc2N1c1ccc(C(F)(F)F)cc1C#N` (single isomer, unassigned) [Example 98]: the concentration for half-maximal inhibition (IC50) against Nav 1.7 [1] is 996 nM; at Nav 1.5, above 10000 nM; against Nav 1.7 [2], 3430 nM.

As for `Cc1cnc(NS(=O)(=O)c2ccc3c(c2)OCCN3c2ccc(C(F)(F)F)cc2Cl)s1` [Example 12, 4-(2-Chloro-4-(Trifluoromethyl)Phenyl)-N-(5-Methylthiazol-2-Yl)-3,4-Dihydro-2H-Benzo[B][1,4]Oxazine-7-Sulfonamide], the inhibition at 4.9 µM at Nav 1.7 [1] is 24.5%. In addition, the IC50 against Nav 1.5 was above 10000 nM.

On to `CN(C)CCn1ccc(NS(=O)(=O)c2ccc3c(c2)OCCN3c2ccc(C(F)(F)F)cc2Cl)n1` [Example 14, 4-(2-Chloro-4-(Trifluoromethyl)Phenyl)-N-(1-(2-(Dimethylamino)Ethyl)-1H-Pyrazol-3-Yl)-3,4-Dihydro-2H-Benzo[B][1,4]Oxazine-7-Sulfonamide 2,2,2-Trifluoroacetate], for which the 50% inhibitory concentration (IC50) against Nav 1.7 [1] stood at 9310 nM; at Nav 1.5, 8250 nM.

Regarding `Cn1ccc(NS(=O)(=O)c2ccc3c(c2)OCCN3c2ccc(C(F)(F)F)cc2Cl)n1` [Example 15, 4-(2-Chloro-4-(Trifluoromethyl)Phenyl)-N-(1-Methyl-1H-Pyrazol-3-Yl)-3,4-Dihydro-2H-Benzo[B][1,4]Oxazine-7-Sulfonamide], the IC50 was 6110 nM against Nav 1.7 [1] and above 10000 nM against Nav 1.5.

On to `O=S(=O)(Nc1nccs1)c1ccc2c(c1)OCCN2c1ccc(Cl)cc1C1=CCNCC1` [Example 52, 4-(4-Chloro-2-(1,2,3,6-Tetrahydropyridin-4-Yl)Phenyl)-N-(Thiazol-2-Yl)-3,4-Dihydro-2H-Benzo[B][1,4]Oxazine-7-Sulfonamide 2,2,2-Trifluoroacetate], for which the values for the IC50 at Nav 1.7 [1] and at Nav 1.7 [2] were 4.5 nM and 35.5 nM, respectively.

In the case of `Cc1ccc2cnccc2c1N1CCOc2cc(S(=O)(=O)Nc3nccs3)ccc21` [Example 73, 4-(6-Methylisoquinolin-5-Yl)-N-(Thiazol-2-Yl)-3,4-Dihydro-2H-Benzo[B][1,4]Oxazine-7-Sulfonamide 2,2,2-Trifluoroacetate], the IC50 against Nav 1.7 [1] is 7580 nM; at Nav 1.5 it was above 10000 nM.

Take `O=S(=O)(Nc1cncs1)c1ccc2c(c1)OCCN2c1ccc(C(F)(F)F)cc1C1=CCNCC1` [Example 85, 4-(2-(1,2,3,6-Tetrahydropyridin-4-Yl)-4-(Trifluoromethyl)Phenyl)-N-(Thiazol-5-Yl)-3,4-Dihydro-2H-Benzo[B][1,4]Oxazine-7-Sulfonamide 2,2,2-Trifluoroacetate]: the inhibition at 4.9 µM on Nav 1.7 [1] stood at 41.1%. The IC50 against Nav 1.5 is above 10000 nM.

Turning to `O=C1COc2cc(S(=O)(=O)Nc3nncs3)ccc2N1c1cccc(Cl)c1` [Example 92, 4-(3-Chlorophenyl)-3-Oxo-N-(1,3,4-Thiadiazol-2-Yl)-3,4-Dihydro-2H-Benzo[B][1,4]Oxazine-7-Sulfonamide], the inhibition at 4.9 µM on Nav 1.7 [1] is 26.4%. The compound further registered an IC50 against Nav 1.5 above 10000 nM.

`N#Cc1cncc(N2CCOc3cc(S(=O)(=O)Nc4nccs4)ccc32)c1` [Example 117, 4-(5-Cyanopyridin-3-yl)-N-(thiazol-2-yl)-3,4-dihydro-2H-benzo[b][1,4]oxazine-7-sulfonamide]: the IC50 is 2140 nM against Nav 1.7 [1] and above 10000 nM at Nav 1.5.

With `COc1ccc(N2CCOc3cc(S(=O)(=O)Nc4nccs4)ccc32)cc1OC` [Example 119, 4-(3,4-Dimethoxyphenyl)-N-(thiazol-2-yl)-3,4-dihydro-2H-benzo[b][1,4]oxazine-7-sulfonamide], the half-maximal inhibitory concentration (IC50) is 2530 nM against Nav 1.7 [1] and above 10000 nM against Nav 1.5.

With `Cc1ccc(N2CCOc3cc(S(=O)(=O)Nc4nccs4)ccc32)c(C)n1` [Example 132, 4-(2,6-Dimethylpyridin-3-yl)-N-(thiazol-2-yl)-3,4-dihydro-2H-benzo[b][1,4]oxazine-7-sulfonamide], the IC50 against Nav 1.7 [1] was 3560 nM; against Nav 1.5, above 10000 nM.

In the case of `CCN(CC)C(=O)CN1CCOc2cc(S(=O)(=O)Nc3nccs3)ccc21` [Example 228, N,N-Diethyl-2-(7-(N-(Thiazol-2-Yl)Sulfamoyl)-2H-Benzo[B][1,4]Oxazin-4(3 H)-Yl)Acetamide], at Nav 1.7 [1], the inhibition at 4.9 µM stood at 20%. The compound also displayed an IC50 against Nav 1.5 above 10000 nM.
